Measured values taken from US12479816B2, “20-HETE formation inhibitors” (UNIVERSITY OF PITTSBURGH—OF THE COMMONWEALTH SYSTEM OF …, priority 2019, dated 2025).

Experiments:
rCYP4F2 = molecular target: T1, rCYP4F2 (Homo sapiens, UniProt P78329); assay: Inhibition of 20-HETE formation at 250 or 500 nM in rCYP4F2 incubations; format: biochemical; conditions: rCYP4F2 25 pmol/mL; for inhibition at 0.25 µM: 250 nM compound, read-out: rCYP4F2 % inh. @ 250 nM; for inhibition at 0.5 µM: 500 nM compound, read-out: rCYP4F2 % inh. @ 500 nM
T1 sequence (P78329 5-520): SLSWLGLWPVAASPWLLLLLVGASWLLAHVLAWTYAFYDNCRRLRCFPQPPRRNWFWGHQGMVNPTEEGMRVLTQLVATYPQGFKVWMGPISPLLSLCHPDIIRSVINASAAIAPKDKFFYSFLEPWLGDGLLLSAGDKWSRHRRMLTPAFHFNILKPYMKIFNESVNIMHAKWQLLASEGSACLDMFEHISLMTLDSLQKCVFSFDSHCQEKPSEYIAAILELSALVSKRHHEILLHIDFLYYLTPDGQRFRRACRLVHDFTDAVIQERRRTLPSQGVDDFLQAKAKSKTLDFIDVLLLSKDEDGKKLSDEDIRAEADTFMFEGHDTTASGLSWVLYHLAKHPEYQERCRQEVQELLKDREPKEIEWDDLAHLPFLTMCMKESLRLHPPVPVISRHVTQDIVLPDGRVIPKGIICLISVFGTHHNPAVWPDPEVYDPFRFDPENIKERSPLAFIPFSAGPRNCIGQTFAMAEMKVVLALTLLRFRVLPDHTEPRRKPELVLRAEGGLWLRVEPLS
Method in brief: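 20-HETE formation, measured by UPLC-MS/MS after ether extraction, is reported as percentage of vehicle control, triplicates. Incubations: 300 μg/ml microsomal protein or 25 pmol/mL rCYP4F2, AA 100 μM, NADPH 1 mM, 20 min at 37° C.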

[1] = test system: 20-HETE formation (CYP4) in RLM; assay: IC50 determination, 20-HETE formation in RLM; format: biochemical, rat; conditions: RLM 300 μg/ml, AA 100 μM, 12 concentrations
Experimental: Microsomal incubations contained HLM, RLM (300 μg/ml), AA (100 μM), NADPH (1 mM) and test compounds at 12 concentrations (0.1 nM-50 μM) in a 1 ml total volume in microsomal incubation buffer (0.12 M potassium phosphate buffer containing 5 mM magnesium chloride). Reaction was started by adding NADPH to the incubates and was carried out at 37° C. in a shaking water bath for 20 min. Reaction was stopped by placing tubes on ice, followed by adding 12.5 μl 20-HETE-d6 as internal standard to each sample. Microsomal incubations were extracted with 3 ml ethyl ether twice, dried down under nitrogen gas and reconstituted in 125 μl 80:20 methanol:deionized H2O for analysis. 20-HETE formation was quantified using the validated UPLC-MS/MS assay described above and normalized by vehicle group. HET0016 (250 nM) was used as positive control. Incubates without NADPH group served as the negative control. IC50 was determined by fitting the dose-response curve using Graphpad Prism nonlinear regression.

| inhibition at 0.25 µM (rCYP4F2) [%] | inhibition at 0.5 µM (rCYP4F2) [%] | IC50 [1] [nM] | Structure (SMILES) |
| --- | --- | --- | --- |
| 53.6 | – | – | c1ccc(C2CCN(c3ccn[nH]3)CC2)cc1 [Compound 54, 4-Phenyl-1-(1H-pyrazol-5-yl)piperidine] |
| – | 96.2 | 720 | O=C1CCCN1Cc1ccc(C2CCN(c3cn[nH]c3)CC2)cc1 [Compound 83, 1-(4-(1-(1H-Pyrazol-4-yl)piperidin-4-yl)benzyl)pyrrolidin-2-one] |
| – | 97 | 120 | Clc1ccc(CC2CCN(c3cn[nH]c3)CC2)cc1 [Compound 93, 4-(4-Chlorobenzyl)-1-(1H-pyrazol-4-yl)piperidine] |
| – | 81.2 | 570 | O=C1CCCN1c1ccc(C2CCN(c3cn[nH]c3)CC2)cc1 [Compound 100, 1-(4-(1-(1H-Pyrazol-4-yl)piperidin-4-yl)phenyl)pyrrolidin-2-one] |

Further lines, the compound ahead of its results:

| Structure (SMILES) | inhibition at 0.25 µM (rCYP4F2) [%] | inhibition at 0.5 µM (rCYP4F2) [%] | IC50 [1] [nM] |
| --- | --- | --- | --- |
| c1ccc(C2CCN(c3cn[nH]c3)CC2)cc1 [Compound 1, 4-Phenyl-1-(1H-pyrazol-4-yl)piperidine] | 78.5 | – | – |
| c1ccc(CC2CCN(c3cn[nH]c3)CC2)cc1 [Compound 3, 4-Benzyl-1-(1H-pyrazol-4-yl)piperidine] | – | 77 | – |
| COc1ccc(C2CCN(c3ccn[nH]3)CC2)cc1 [Compound 19, 4-(4-Methoxyphenyl)-1-(1H-pyrazol-5-yl)piperidine] | – | 41.4 | – |
| COc1ccc(C2CCN(c3cn[nH]c3)CC2)cc1 [Compound 20, 4-(4-Methoxyphenyl)-1-(1H-pyrazol-4-yl)piperidine] | – | 67.7 | – |
| CC(=O)N(C)c1ccc(C2CCN(c3cn[nH]c3)CC2)cc1 [Compound 28, N-(4-(1-(1H-Pyrazol-4-yl)piperidin-4-yl)phenyl)-N-methylacetamide] | – | 58 | – |
| Cc1cccc(C2CCN(c3cn[nH]c3)CC2)c1 [Compound 34, 1-(1H-Pyrazol-4-yl)-4-(m-tolyl)piperidine] | – | 86 | – |
